Results published in patent publication US5703050A (Hoechst Aktiengesellschaft, priority 1993, dated 1997).
Where two headings read alike, the source gives them in different places.

Tests used:
[1] = system: gel-filtered human platelets; test: Inhibition of the aggregation of gel-filtered human platelets after ADP or thrombin stimulation; format: cell-based; details: platelet aggregation
Experimental: (§1) The compounds are tested in particular for their inhibitory effect on blood platelet aggregation and the adhesion of fibrinogen to blood platelets. Gel-filtered blood platelets from human donor blood are used, which are activated with ADP or thrombin.
As a functional test, the inhibition of the aggregation of gel-filtered human platelets is measured after ADP or thrombin stimulation by the compounds according to the invention. The IC50 value of the inhibition is indicated (reference: G. A. Marguerie et al., J. Biol. Chem. 254 (1979), 5357-5363).

[2] = target: T1, fibrinogen receptor (glycoprotein IIb/IIIa) (Homo sapiens, UniProt P05106+P08514); test: Inhibition of binding of 125I-fibrinogen to its receptor on intact, gel-filtered human platelets; details: inhibition of 125I-fibrinogen binding after stimulation with ADP (10 μM), read-out: Ki (μM), ADP-stimulated
T1 construct: its receptor (glycoprotein IIb/IIIa) on intact, gel-filtered human platelets; endogenous in cells; host or cells: gel-filtered platelets from human donor blood, stimulated with ADP (10 uM)
T1 sequence (P08514 32-887 limits assumed): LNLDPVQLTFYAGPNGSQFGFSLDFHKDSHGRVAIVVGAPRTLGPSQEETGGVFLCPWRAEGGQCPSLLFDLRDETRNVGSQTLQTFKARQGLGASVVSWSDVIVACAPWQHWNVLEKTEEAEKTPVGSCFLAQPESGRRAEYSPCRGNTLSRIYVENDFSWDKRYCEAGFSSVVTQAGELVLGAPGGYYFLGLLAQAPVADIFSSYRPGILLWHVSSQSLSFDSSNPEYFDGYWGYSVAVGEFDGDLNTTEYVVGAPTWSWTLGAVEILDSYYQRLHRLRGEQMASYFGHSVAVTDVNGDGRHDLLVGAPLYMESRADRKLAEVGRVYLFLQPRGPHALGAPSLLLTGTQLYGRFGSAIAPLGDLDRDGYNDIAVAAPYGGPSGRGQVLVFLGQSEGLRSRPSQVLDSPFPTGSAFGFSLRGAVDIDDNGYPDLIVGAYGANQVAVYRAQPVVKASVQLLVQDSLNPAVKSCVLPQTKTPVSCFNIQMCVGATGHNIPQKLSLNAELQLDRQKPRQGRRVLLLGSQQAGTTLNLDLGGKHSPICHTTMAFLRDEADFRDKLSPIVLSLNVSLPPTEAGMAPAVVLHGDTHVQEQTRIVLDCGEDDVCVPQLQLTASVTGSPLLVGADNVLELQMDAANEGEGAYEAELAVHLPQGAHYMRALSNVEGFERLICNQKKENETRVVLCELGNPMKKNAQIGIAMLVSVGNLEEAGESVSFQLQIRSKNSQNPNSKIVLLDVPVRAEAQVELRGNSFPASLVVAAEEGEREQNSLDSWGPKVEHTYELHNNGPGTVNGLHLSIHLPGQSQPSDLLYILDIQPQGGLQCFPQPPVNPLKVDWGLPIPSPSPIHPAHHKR
T1 sequence (P08514 891-1039 limits assumed): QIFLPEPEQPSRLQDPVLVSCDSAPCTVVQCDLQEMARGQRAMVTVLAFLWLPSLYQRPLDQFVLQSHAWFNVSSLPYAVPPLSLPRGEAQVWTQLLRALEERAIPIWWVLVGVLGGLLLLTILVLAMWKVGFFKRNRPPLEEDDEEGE
T1 sequence (P05106 27-788): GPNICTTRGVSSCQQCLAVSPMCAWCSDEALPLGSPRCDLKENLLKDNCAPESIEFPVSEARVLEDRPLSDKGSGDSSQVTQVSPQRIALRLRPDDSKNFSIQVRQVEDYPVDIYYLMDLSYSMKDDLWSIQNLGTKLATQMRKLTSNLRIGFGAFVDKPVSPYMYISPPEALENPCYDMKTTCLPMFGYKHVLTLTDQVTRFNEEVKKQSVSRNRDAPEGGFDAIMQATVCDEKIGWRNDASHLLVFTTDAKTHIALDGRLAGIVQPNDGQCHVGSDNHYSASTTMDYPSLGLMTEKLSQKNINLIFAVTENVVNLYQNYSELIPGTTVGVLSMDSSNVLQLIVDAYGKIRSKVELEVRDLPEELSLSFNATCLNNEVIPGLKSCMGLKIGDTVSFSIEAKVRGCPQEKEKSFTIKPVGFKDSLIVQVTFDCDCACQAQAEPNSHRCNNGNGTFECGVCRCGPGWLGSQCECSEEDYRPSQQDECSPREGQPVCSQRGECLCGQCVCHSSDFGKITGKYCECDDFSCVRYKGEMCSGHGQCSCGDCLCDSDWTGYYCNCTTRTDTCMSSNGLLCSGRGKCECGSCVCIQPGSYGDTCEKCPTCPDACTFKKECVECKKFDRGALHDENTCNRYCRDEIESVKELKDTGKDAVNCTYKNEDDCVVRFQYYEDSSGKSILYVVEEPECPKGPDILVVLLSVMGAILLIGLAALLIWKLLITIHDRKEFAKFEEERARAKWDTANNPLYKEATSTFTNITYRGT
Experimental: as §1
The inhibition of the binding of fibrinogen to its receptor (glycoprotein IIb/IIIa) on intact, gel-filtered human platelets by the compounds according to the invention is tested. The Ki value of the inhibition of binding of 125I-fibrinogen after stimulation with ADP (10 μM) is indicated. (Reference: J. S. Bennett and G. Vilaire, J. Clin. Invest. 64 (1979) 1393-1401; E. Kornecki et al., J. Biol. Chem. 256 (1981), 5695-5701; G. A. Marguerie et al., J. Biol. Chem. 254 (1979) 5357-5363; G. A. Marguerie et al., J. Biol. Chem. 255 (1980) 154-161.)

[3] = ADP stimulation, read-out: ADP-stimulated IC50
[4] = thrombin stimulation, read-out: thrombin-stimulated IC50

| Compound | IC50 [1, 3] | IC50 [1, 4] | Ki [2] |
| --- | --- | --- | --- |
| (3-(4-(Aminoiminomethyl)phenyl)ureido)acetyl-L-aspartylbenzylamide [Example 8] | 2000 nM | 2000 nM | – |
| 3-((3-(4-(Aminoiminomethyl)phenyl)ureido)acetylamino)-3-phenyl-propionic acid [Example 7] | 3000 nM | 1500 nM | – |
| (3-(4-(Aminoiminomethyl)phenyl)ureido)acetyl-L-aspartyl-L-phenylglycine methyl ester trifluoroaetate [Example 6] | 750 nM | 300 nM | – |
| 3-(3-(3-Aminopropyl)ureido)benzoyl-L-aspartyl-L-phenylglycine [Example 10] | 8500 nM | 3000 nM | – |
| N=C(N)c1ccc(NC(=O)NCC(=O)N[C@@H](CC(=O)O)C(=O)N[C@H](C(=O)O)c2ccccc2)cc1 [Example 1] | 150 nM | 100 nM | 0.03 µM |
